From patent US6936607B2, “2,4,6-Triaminopyrimidines for the treatment of depression and/or anxiety” (H. Lunobeck A/S, priority 2002, dated 2005)

target: T1, human GalR3 receptor (Homo sapiens, UniProt O60755); test: Radioligand binding assay at cloned human GalR3 receptor; conditions: Binding Data; membranes from LM(tk-) cells stably transfected with the human GalR3 receptor
T1 construct: expressed in transfected cells; host or cells: mouse fibroblast LM(tk-) cells, stably transfected; membranes
T1 sequence (O60755 1-368): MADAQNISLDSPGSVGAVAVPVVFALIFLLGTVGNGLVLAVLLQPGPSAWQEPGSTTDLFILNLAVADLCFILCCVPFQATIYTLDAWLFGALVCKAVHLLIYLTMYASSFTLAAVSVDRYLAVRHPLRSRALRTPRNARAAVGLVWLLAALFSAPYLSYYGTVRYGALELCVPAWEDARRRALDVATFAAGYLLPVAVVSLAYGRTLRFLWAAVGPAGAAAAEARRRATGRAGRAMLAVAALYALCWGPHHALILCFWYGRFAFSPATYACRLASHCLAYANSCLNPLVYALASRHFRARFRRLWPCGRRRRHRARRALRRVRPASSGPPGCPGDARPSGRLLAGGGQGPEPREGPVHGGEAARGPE
Method: LM(tk-) cells were stably transfected with the human GalR3 receptor. cDNAs for the human and rat GalR3 receptors were transfected with a G-418 resistant gene into the mouse fibroblast LM(tk-) cell line by a calcium phosphate transfection method (Cullen, 1987). Membranes were harvested from stably transfected LM(tk-) cells. Adherent cells were washed twice in ice-cold phosphate buffered saline (138 mM NaCl, 8.1 mM Na2HPO4, 2.5 mM KCl, 1.2 mM KH2PO4, 0.9 mM CaCl2, 0.5 mM MgCl2, pH 7.4) and lysed by sonication in ice-cold sonication buffer (20 mM Tris-HCl, 5 mM EDTA, pH 7.7). Large particles and debris were cleared by low speed centrifugation (200×g, 5 min, 4° C.). Membranes were collected from the supernatant fraction by centrifugation (32,000×g, 18 min, 4° C.), washed with ice-cold hypotonic buffer, and collected again by centrifugation (32,000×g, 18 min, 4° C.). The final membrane pellet was resuspended by sonication into a small volume of ice-cold binding buffer (˜1 ml for every 5 plates: 10 mM NaCl, 20 mM HEPES, 0.22 mM KH2PO4, 1.26 mM CaCl2, 0.81 mM MgSO4, pH 7.4). Protein concentration was measured by the Bradford method (Bradford, 1976) using Bio-Rad Reagent, with bovine serum albumin as a standard. Membranes were held on ice for up to one hour and used fresh, or flash frozen and stored in liquid nitrogen. Membranes were prepared similarly from CHO cells. The methods to obtain the cDNA of the receptors, express said receptors in heterologous systems, and carry out assays to determine binding affinity are described as follows. Binding assays were performed according to the following published method: human GALR3 (PCT International Publication No. WO 02/060392).

Going from `COc1cccc(Nc2cc(N(C)C)nc(N3CCN(c4ccccc4Cl)CC3)n2)c1` [Example 11, 2-[4-(2-CHLOROPHENYL)-1-PIPERAZINYL]-N^4-(3-METHOXYPHENYL)-N^6,N^6-DIMETHYL-4,6-PYRIMIDINEDIAMINE] to `COc1cccc(Nc2cc(N(C)C)nc(N3CCN(c4ccccc4F)CC3)n2)c1` [Example 13, 2-[4-(2-FLUOROPHENYL)-1-PIPERAZINYL]-N^4-(3-METHOXYPHENYL)-N^6,N^6-DIMETHYL-4,6-PYRIMIDINEDIAMINE], the Ki rises from 0.062 µM to 0.093 µM (1.5-fold). The first binds more tightly here.

Compared with `C[C@@H]1CN(c2nc(Nc3cccc(OCc4ccccc4)c3)cc(N(C)C)n2)C[C@H](C)O1` [Example 34, N^4-[3-(BENZYLOXY)PHENYL]-2-[CIS-2,6-DIMETHYLMORPHOLINYL]-N^6,N^6-DIMETHYL-4,6-PYRIMIDINEDIAMINE], `CN(C)c1cc(Nc2cccc(OCc3ccccc3)c2)nc(N2CCCC2)n1` [Example 37, N^4-[3-(BENZYLOXY)PHENYL]-N^6,N^6-DIMETHYL-2-(1-PYRROLIDINYL)-4,6-PYRIMIDINEDIAMINE] is 1.8-fold higher in Ki: 0.032 µM for the first, 0.059 µM for the second. The first binds more tightly here.

First: CN(C)c1cc(Nc2cccc(OCc3ccccc3)c2)nc(N2CCc3ccccc32)n1 [Example 42, N^4-[3-(BENZYLOXY)PHENYL]-2-(2,3-DIHYDRO-1H-INDOL-1-YL)-N^6,N^6-DIMETHYL-4,6-PYRIMIDINEDIAMINE]
Second: CN(C)c1cc(Nc2cccc(OCc3ccccc3)c2)nc(N2CCN(c3ccccc3Cl)CC2)n1 [Example 25, N^4-[3-(BENZYLOXY)PHENYL]-2-[4-(2-CHLOROPHENYL)-1-PIPERAZINYL]-N^6,N^6-DIMETHYL-4,6-PYRIMIDINEDIAMINE]
The Ki of the first is 5.7-fold higher: 0.091 µM for the first, 0.016 µM for the second. The second binds more tightly here.

Compared with `CN(C)c1cc(Nc2ccc(C3CCCCC3)cc2)nc(N2CCN(c3ccccc3F)CC2)n1` [Example 18, N^4-(4-CYCLOHEXYLPHENYL)-2-[4-(2-FLUOROPHENYL)-1-PIPERAZINYL]-N^6,N^6-DIMETHYL-4,6-PYRIMIDINEDIAMINE], `CN(C)c1cc(Nc2ccc(C3CCCCC3)cc2)nc(N2CCN(c3cccc(Cl)c3)CC2)n1` [Example 9, 2-[4-(3-CHLOROPHENYL)-1-PIPERAZINYL]-N^4-(4-CYCLOHEXYLPHENYL)-N^6,N^6-DIMETHYL-4,6-PYRIMIDINEDIAMINE] is 5.2-fold higher in Ki: 0.046 µM for the first, 0.241 µM for the second.

Going from `Cc1ccc(Nc2cc(N(C)C)nc(N3C[C@@H](C)O[C@@H](C)C3)n2)cc1N(C)Cc1ccccc1` [Example 49, N^4-{3-[BENZYL(METHYL)AMINO]-4-METHYLPHENYL}-2-[CIS-2,6-DIMETHYIMORPHOLINYL]-N^6,N^6-DIMETHYL-4,6-PYRIMIDINEDIAMINE] to `CCC(C)Nc1cc(Nc2cc(N(C)C)nc(N3C[C@@H](C)O[C@@H](C)C3)n2)ccc1C` (stereo partly drawn) [Example 50, N^4-[3-(SEC-BUTYLAMINO)-4-METHYLPHENYL]-2-[CIS-2,6-DIMETHYL MORPHOLINYL]-N^6,N^6-DIMETHYL-4,6-PYRIMIDINEDIAMINE], the Ki rises from 0.103 µM to 0.312 µM (3-fold). The first binds more tightly here.

First: Clc1ccc(Nc2cc(N3CCN(c4ccccn4)CC3)nc(N3CCN(c4ccccn4)CC3)n2)cc1Cl [Example 43, N-(3,4-DICHLOROPHENYL)-2,6-BIS[4-(2-PYRIDINYL)-1-PIPERAZINYL]-4-PYRIMIDINAMINE]
Second: O=C1CCN(c2cc(Nc3ccc(Cl)c(Cl)c3)nc(N3CCN(Cc4ccccc4)CC3)n2)CC1 [Example 53, 1-[2-(4-BENZYL-1-PIPERAZINYL)-6-(3,4-DICHLOROANILINO)-4-PYRIMIDINYL]-4-PIPERIDINONE]
The Ki of the first is 1.7-fold higher: 0.06 µM for the first, 0.036 µM for the second.

Going from `CN(C)c1cc(Nc2ccc(Cl)c(Cl)c2)nc(N2CCN(c3cccc(Cl)c3)CC2)n1` [Example 16, 2-[4-(3-CHLOROPHENYL)-1-PIPERAZINYL]-N^4-(3,4-DICHLOROPHENYL)-N^6,N^6-DIMETHYL-4,6-PYRIMIDINEDIAMINE] to `CN(C)c1cc(Nc2ccc(Cl)c(Cl)c2)nc(N2CCN(c3ccccc3Cl)CC2)n1` [Example 21, 2-[4-(2-CHLOROPHENYL)-1-PIPERAZINYL]-N^4-(3,4-DICHLOROPHENYL)-N^6,N^6-DIMETHYL-4,6-PYRIMIDINEDIAMINE], the Ki rises from 0.034 µM to 0.063 µM (1.9-fold). The first binds more tightly here.

Going from `CCNc1cc(Nc2cc(N(C)C)nc(N3CCN(Cc4ccccc4)CC3)n2)ccc1C` [Example 40, 2-(4-BENZYL-1-PIPERAZINYL)-N^4-[3-(ETHYLAMINO)-4-METHYLPHENYL]-N^6,N^6-DIMETHYL-4,6-PYRIMIDINEDIAMINE] to `CCNc1cccc(Nc2cc(N(C)C)nc(N3CCN(Cc4ccccc4)CC3)n2)c1` [Example 33, 2-(4-BENZYL-1-PIPERAZINYL)-N^4-[3-(ETHYLAMINO)PHENYL]N^6,N^6-DIMETHYL-4,6-PYRIMIDINEDIAMINE], the Ki rises from 0.137 µM to 0.942 µM (6.9-fold). The first binds more tightly here.

Compared with `COc1cccc(Nc2cc(N(C)C)nc(N3CCN(c4cccc(Cl)c4)CC3)n2)c1` [Example 8, 2-[4-(3-CHLOROPHENYL)-1-PIPERAZINYL]-N^4-(3-METHOXYPHENYL)-N^6,N^6-DIMETHYL-4,6-PYRIMIDINEDIAMINE], `CN(C)c1cc(Nc2cccc(OCc3ccccc3)c2)nc(N2CCN(c3cccc(Cl)c3)CC2)n1` [Example 27, N^4-[3-(BENZYLOXY)PHENYL]-2-[4-(3-CHLOROPHENYL)-1-PIPERAZINYL]-N^6,N^6-DIMETHYL-4,6-PYRIMIDINEDIAMINE] is 3.8-fold lower in Ki: 0.107 µM for the first, 0.028 µM for the second.

Going from `Cc1ccc(Nc2cc(N(C)C)nc(NCc3ccccc3)n2)cc1` [Example 39, N^2-BENZYL-N^4,N^4-DIMETHYL-N^6-(4-METHYLPHENYL)-2,4,6-PYRIMIDINE TRIAMINE] to `Cc1ccc(Nc2cc(N(C)C)nc(N3CCN(c4ccc(Cl)cc4)CC3)n2)cc1` [Example 7, 2-[4-(4-CHLOROPHENYL)-1-PIPERAZINYL]-N^4,N^4-DIMETHYL-N^6-(4-METHYLPHENYL)-4,6-PYRIMIDINEDIAMINE], the Ki rises from 0.114 µM to 0.352 µM (3.1-fold).

`CN(C)c1cc(Nc2cccc(OCc3ccccc3)c2)nc(N2CCN(c3ncccn3)CC2)n1` [Example 41, N-[3-(BENZYLOXY)PHENYL]-N^6,N^6-DIMETHYL-2-[4-(2-PYRIMIDINYL)-1-PIPERAZINYL]-4,6-PYRIMIDINEDIAMINE] and `CN(C)c1cc(Nc2cccc(OCc3ccccc3)c2)nc(N2CCN(c3ccccc3F)CC2)n1` [Example 24, N^4-[3-(BENZYLOXY)PHENYL]-2-[4-(2-FLUOROPHENYL)-1-PIPERAZINYL]-N^6,N^6-DIMETHYL-4,6-PYRIMIDINEDIAMINE] are within 1.5-fold of each other in Ki: 0.014 µM for the first, 0.02 µM for the second.

`CN(C)c1cc(Nc2ccc(SC(F)(F)F)c(Cl)c2)nc(N2CCN(c3ccc(Cl)cc3)CC2)n1` [Example 30, 2-[4-(4-CHLOROPHENYL)-1-PIPERAZINYL]-N^4-{3-CHLORO-4-[TRIFLUOROMETHYL) SULFANYL]PHENYL}-N^6,N^6-DIMETHYL-4,6-PYRIMIDINEDIAMINE] and `CN(C)c1cc(Nc2ccc(SC(F)(F)F)c(Cl)c2)nc(N2CCN(c3ccccc3Cl)CC2)n1` [Example 22, 2-[4-(2-CHLOROPHENYL)-1-PIPERAZINYL]-N^4-{3-CHLORO-4-[(TRIFLUOROMETHYL) SULFANYL]PHENYL}-N^6,N^6-DIMETHYL-4,6-PYRIMIDINE DIAMINE] are within 1.5-fold of each other in Ki: 0.138 µM for the first, 0.182 µM for the second.

Going from `CN(C)c1cc(Nc2cccc(OCc3ccccc3)c2)nc(N2CCN(c3ccc(Cl)cc3)CC2)n1` [Example 31, N^4-[3-(BENZYLOXY)PHENYL]-2-[4-(4-CHLOROPHENYL)-1-PIPERAZINYL]-N^6,N^6-DIMETHYL-4,6-PYRIMIDINEDIAMINE] to `CN(C)c1cc(Nc2ccc3c(c2)CCC3)nc(N2CCN(c3ccc(Cl)cc3)CC2)n1` [Example 6, 2-[4-(4-CHLOROPHENYL)-1-PIPERAZINYL]-N^4-(2,3-DIHYDRO-1H-INDEN-5-YL)-N^6,N^6-DIMETHYL-4,6-PYRIMIDINEDIAMINE], the Ki rises from 0.026 µM to 0.052 µM (2-fold). The first binds more tightly here.

`CN(C)c1cc(Nc2cccc(OCc3ccccc3)c2)nc(N(C)CC2CCCO2)n1` (stereo not drawn) [Example 35, N^4-[3-(BENZYLOXY)PHENYL]-N^2,N^6,N^6-TRIMETHYL-N^2-(TETRAHYDRO-2-FURANYLMETHYL)-2,4,6-PYRIMIDINETRIAMINE] and `Cc1ccc(Nc2cc(N(C)C)nc(N3CCN(c4ccccc4Cl)CC3)n2)cc1C` [Example 17, 2-[4-(2-CHLOROPHENYL)-1-PIPERAZINYL]-N^4-(3,4-DIMETHYLPHENYL)-N^6,N^6-DIMETHYL-4,6-PYRIMIDINEDIAMINE] are within 1.5-fold of each other in Ki: 0.042 µM for the first, 0.057 µM for the second.

Going from `Cc1ccc(Nc2cc(N(C)C)nc(N3CCN(c4ccccn4)CC3)n2)cc1NC(C)C` [Example 26, N^4-[3-(ISOPROPYLAMINO)-4-METHYLPHENYL]-N^6,N^6-DIMETHYL-2-[4-(2-PYRIDINYL)-1-PIPERAZINYL]-4,6-PYRIMIDINEDIAMINE] to `C[C@@H]1CN(c2nc(Nc3ccc(Cl)c(Cl)c3)cc(N(C)C)n2)C[C@H](C)O1` [Example 51, N^4-(3,4-DICHLOROPHENYL)-2-(CIS-2,6-DIMETHYLMORPHOLINYL)-N^6,N^6-DIMETHYL-4,6-PYRIMIDINEDIAMINE], the Ki falls from 0.246 µM to 0.081 µM (3-fold). The second binds more tightly here.
